Measurements taken from PubChem BioAssay (NCI).
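48-hour exposure; five concentrations; linearly interpolated endpoints. Definition used: TGI = concentration required for complete inhibition of growth.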

Experiments:
Assay in all cases: inhibition of tumour cell growth, NCI panel, 48 h
786-0 renal = tested on: 786-0 renal
A498 renal = tested on: A498 renal
A549 NSCLC = tested on: A549 NSCLC
ACHN renal = tested on: ACHN renal
BT-549 breast = tested on: BT-549 breast
CAKI-1 renal = tested on: CAKI-1 renal
CCRF-CEM leukemia = tested on: CCRF-CEM leukemia
COLO 205 colon = tested on: COLO 205 colon
DU-145 prostate = tested on: DU-145 prostate
EKVX NSCLC = tested on: EKVX NSCLC
HCC-2998 colon = tested on: HCC-2998 colon
HCT-116 colon = tested on: HCT-116 colon
HCT-15 colon = tested on: HCT-15 colon
HL-60(TB) leukemia = tested on: HL-60(TB) leukemia
HOP-62 NSCLC = tested on: HOP-62 NSCLC
HOP-92 NSCLC = tested on: HOP-92 NSCLC
HS 578T breast = tested on: HS 578T breast
HT29 colon = tested on: HT29 colon
IGROV1 ovarian = tested on: IGROV1 ovarian
K-562 leukemia = tested on: K-562 leukemia
KM12 colon = tested on: KM12 colon
LOX IMVI melanoma = tested on: LOX IMVI melanoma
M14 melanoma = tested on: M14 melanoma
MALME-3M melanoma = tested on: MALME-3M melanoma
MCF7 breast = tested on: MCF7 breast
MDA-MB-231 breast = tested on: MDA-MB-231 breast
MDA-MB-435 = tested on: MDA-MB-435
MDA-N = tested on: MDA-N
MOLT-4 leukemia = tested on: MOLT-4 leukemia
NCI-H226 lung = tested on: NCI-H226 lung
NCI-H23 lung = tested on: NCI-H23 lung
NCI-H460 lung = tested on: NCI-H460 lung
NCI-H522 lung = tested on: NCI-H522 lung
NCI/ADR-RES ovarian = tested on: NCI/ADR-RES ovarian
OVCAR-3 ovarian = tested on: OVCAR-3 ovarian
OVCAR-4 ovarian = tested on: OVCAR-4 ovarian
OVCAR-5 ovarian = tested on: OVCAR-5 ovarian
OVCAR-8 ovarian = tested on: OVCAR-8 ovarian
PC-3 prostate = tested on: PC-3 prostate
RPMI-8226 leukemia = tested on: RPMI-8226 leukemia
RXF 393 renal = tested on: RXF 393 renal
SF-268 CNS = tested on: SF-268 CNS
SF-295 CNS = tested on: SF-295 CNS
SF-539 CNS = tested on: SF-539 CNS
SK-MEL-2 melanoma = tested on: SK-MEL-2 melanoma
SK-MEL-28 melanoma = tested on: SK-MEL-28 melanoma
SK-MEL-5 melanoma = tested on: SK-MEL-5 melanoma
SK-OV-3 ovarian = tested on: SK-OV-3 ovarian
SN12C renal = tested on: SN12C renal
SNB-19 CNS = tested on: SNB-19 CNS
SNB-75 CNS = tested on: SNB-75 CNS
SR leukemia = tested on: SR leukemia
SW-620 colon = tested on: SW-620 colon
T-47D breast = tested on: T-47D breast
TK-10 renal = tested on: TK-10 renal
U251 CNS = tested on: U251 CNS
UACC-257 melanoma = tested on: UACC-257 melanoma
UACC-62 melanoma = tested on: UACC-62 melanoma
UO-31 renal = tested on: UO-31 renal
DLD-1 colon = tested on: DLD-1 colon
DMS 114 small cell lung = tested on: DMS 114 small cell lung
DMS 273 small cell lung = tested on: DMS 273 small cell lung
HOP-18 NSCLC = tested on: HOP-18 NSCLC
KM20L2 colon = tested on: KM20L2 colon
LXFL 529 NSCLC = tested on: LXFL 529 NSCLC
M19-MEL melanoma = tested on: M19-MEL melanoma
RXF-631 renal = tested on: RXF-631 renal

Measured: TGI

O=[N+]([O-])c1ccc2ncccc2c1CCc1c([N+](=O)[O-])ccc2ncccc12
not listed: DLD-1 colon | DMS 114 small cell lung | DMS 273 small cell lung | HOP-18 NSCLC | KM20L2 colon | LXFL 529 NSCLC | M19-MEL melanoma | RXF-631 renal
> 100 µM: all other assays above

CN(C)CC1CCCC/C1=N/OC(=O)c1ccc(Cl)c(Cl)c1 (stereo not drawn)
not listed: BT-549 breast | DU-145 prostate | HS 578T breast | MCF7 breast | MDA-MB-231 breast | MDA-MB-435 | MDA-N | MOLT-4 leukemia | NCI/ADR-RES ovarian | PC-3 prostate | SNB-19 CNS | T-47D breast
> 100 µM: all other assays above

O=C1c2ccccc2-c2c1c1ccccc1c(=O)n2-c1ccccc1
> 87.4 µM: HS 578T breast
> 54.2 µM: UACC-62 melanoma
23.5 µM: UO-31 renal
32.4 µM: MDA-MB-231 breast
52.7 µM: SF-268 CNS
52 µM: SK-MEL-5 melanoma
12.3 µM: SF-539 CNS
19.2 µM: OVCAR-4 ovarian
26.4 µM: SK-OV-3 ovarian
36.6 µM: NCI-H460 lung
17.1 µM: ACHN renal
34 µM: OVCAR-3 ovarian
46.7 µM: T-47D breast
10.6 µM: 786-0 renal
60.7 µM: A498 renal
40.8 µM: NCI/ADR-RES ovarian
37.1 µM: SNB-75 CNS
26.8 µM: HCT-116 colon
> 52 µM: BT-549 breast
34.7 µM: CAKI-1 renal
50.6 µM: SK-MEL-2 melanoma
> 86.3 µM: HL-60(TB) leukemia
27.4 µM: OVCAR-8 ovarian
> 52.7 µM: IGROV1 ovarian
15 µM: RXF 393 renal
> 50.3 µM: HOP-92 NSCLC
14.9 µM: HOP-62 NSCLC
39.9 µM: U251 CNS
41.4 µM: NCI-H226 lung
24 µM: NCI-H23 lung
23.6 µM: SF-295 CNS
20.4 µM: SNB-19 CNS
27 µM: TK-10 renal
not listed: DLD-1 colon | DMS 114 small cell lung | DMS 273 small cell lung | HOP-18 NSCLC | KM20L2 colon | LXFL 529 NSCLC | M19-MEL melanoma | RXF-631 renal
> 100 µM: all other assays above
